Counter-ions that a name gives are not always drawn. Like-named read-outs stand apart in the source and are kept apart here.
What was measured:
[1] = target: T1, Nav1.6 (Homo sapiens (Human), UniProt Q9UQD0); assay: Electrophysiological Assay (EP, patch voltage clamp), Nav1.6; assay type: cell-based; conditions: HEK-293 cells stably expressing the channel
Description: Patch voltage clamp electrophysiology allows for the direct measurement and quantification of block of voltage-gated sodium channels (Nav's), and allows the determination of the time- and voltage-dependence of block which has been interpreted as differential binding to the resting, open, and inactivated states of the sodium channel (Hille, B., Journal of General Physiology (1977), 69: 497-515).
Nav1.1, Nav1.5 and Nav1.6 cDNAs (NM_001165964 (SCN1A), NM_000335 (SCN5A) and NM_014191 (SCN8A), respectively) were stably expressed in HEK-293 cells.
Sodium currents were measured using the patch clamp technique in the whole-cell configuration using either a PatchXpress automated voltage clamp or manually using an Axopatch 200B (Axon Instruments) or Model 2400 (A-M systems) amplifier. The manual voltage clamp protocol was as follows: Borosilicate glass micropipettes were fire-polished to a tip diameter yielding a resistance of 2-4 Mohms in the working solutions. […] In some studies, the external sodium was reduced by equimolar replacement with choline. Osmolarity in the CsF internal and NaCl external solutions was adjusted to 300 mOsm/kg and 310 mOsm/kg with glucose, respectively. All recordings were performed at ambient temperature in a bath chamber with a volume of 150 μL. Control sodium currents were measured in 0.5% DMSO. Controls and representative compounds of the invention were applied to the recording chamber through a 4-pinch or 8-pinch valve bath perfusion system manufactured by ALA Scientific Instruments.
Currents were recorded at 40 kHz sampling frequency, filtered at […], and stored using a Digidata-1322A analogue/digital interface with the pClamp software (Axon Instruments). Series resistance compensation was applied (60-80%). […] All statistics in this study are given as mean±SD.
The membrane potential was maintained at a voltage where inactivation of the channel is complete. The voltage is then stepped back to a very negative (Vhold=−150 mV) voltage for 20 ms and then a test pulse is applied to quantify the compound block. The 20 ms brief repolarization was long enough for compound-free channels to completely recover from fast inactivation, but the compound-bound channels recovered more slowly such that negligible recovery could occur during this interval. The percent decrease in sodium current following wash-on of compound was taken as the percent block of sodium channels.

[2] = target: Nav1.1 (Homo sapiens (Human), UniProt P35498); assay: Sodium Influx Assay (Flux), Nav1.1; assay type: cell-based; conditions: Trex HEK293 cells, ANG2 dye, inactivated state
[3] = target: T1, Nav1.6; assay: Sodium Influx Assay (Flux), Nav1.6; assay type: cell-based; conditions: Trex HEK293 cells, ANG2 dye, inactivated state
[4] = target: Nav1.5 (Homo sapiens (Human), UniProt Q14524); assay: Sodium Influx Assay (Flux), Nav1.5
[5] = read-out: Flux NaV1.5 IC50, sodium influx assay, Trex HEK293 cells, ANG2 dye, inactivated state

Nav1.5, sequence (Q14524 other isoform, or with tags, fused parts or gaps): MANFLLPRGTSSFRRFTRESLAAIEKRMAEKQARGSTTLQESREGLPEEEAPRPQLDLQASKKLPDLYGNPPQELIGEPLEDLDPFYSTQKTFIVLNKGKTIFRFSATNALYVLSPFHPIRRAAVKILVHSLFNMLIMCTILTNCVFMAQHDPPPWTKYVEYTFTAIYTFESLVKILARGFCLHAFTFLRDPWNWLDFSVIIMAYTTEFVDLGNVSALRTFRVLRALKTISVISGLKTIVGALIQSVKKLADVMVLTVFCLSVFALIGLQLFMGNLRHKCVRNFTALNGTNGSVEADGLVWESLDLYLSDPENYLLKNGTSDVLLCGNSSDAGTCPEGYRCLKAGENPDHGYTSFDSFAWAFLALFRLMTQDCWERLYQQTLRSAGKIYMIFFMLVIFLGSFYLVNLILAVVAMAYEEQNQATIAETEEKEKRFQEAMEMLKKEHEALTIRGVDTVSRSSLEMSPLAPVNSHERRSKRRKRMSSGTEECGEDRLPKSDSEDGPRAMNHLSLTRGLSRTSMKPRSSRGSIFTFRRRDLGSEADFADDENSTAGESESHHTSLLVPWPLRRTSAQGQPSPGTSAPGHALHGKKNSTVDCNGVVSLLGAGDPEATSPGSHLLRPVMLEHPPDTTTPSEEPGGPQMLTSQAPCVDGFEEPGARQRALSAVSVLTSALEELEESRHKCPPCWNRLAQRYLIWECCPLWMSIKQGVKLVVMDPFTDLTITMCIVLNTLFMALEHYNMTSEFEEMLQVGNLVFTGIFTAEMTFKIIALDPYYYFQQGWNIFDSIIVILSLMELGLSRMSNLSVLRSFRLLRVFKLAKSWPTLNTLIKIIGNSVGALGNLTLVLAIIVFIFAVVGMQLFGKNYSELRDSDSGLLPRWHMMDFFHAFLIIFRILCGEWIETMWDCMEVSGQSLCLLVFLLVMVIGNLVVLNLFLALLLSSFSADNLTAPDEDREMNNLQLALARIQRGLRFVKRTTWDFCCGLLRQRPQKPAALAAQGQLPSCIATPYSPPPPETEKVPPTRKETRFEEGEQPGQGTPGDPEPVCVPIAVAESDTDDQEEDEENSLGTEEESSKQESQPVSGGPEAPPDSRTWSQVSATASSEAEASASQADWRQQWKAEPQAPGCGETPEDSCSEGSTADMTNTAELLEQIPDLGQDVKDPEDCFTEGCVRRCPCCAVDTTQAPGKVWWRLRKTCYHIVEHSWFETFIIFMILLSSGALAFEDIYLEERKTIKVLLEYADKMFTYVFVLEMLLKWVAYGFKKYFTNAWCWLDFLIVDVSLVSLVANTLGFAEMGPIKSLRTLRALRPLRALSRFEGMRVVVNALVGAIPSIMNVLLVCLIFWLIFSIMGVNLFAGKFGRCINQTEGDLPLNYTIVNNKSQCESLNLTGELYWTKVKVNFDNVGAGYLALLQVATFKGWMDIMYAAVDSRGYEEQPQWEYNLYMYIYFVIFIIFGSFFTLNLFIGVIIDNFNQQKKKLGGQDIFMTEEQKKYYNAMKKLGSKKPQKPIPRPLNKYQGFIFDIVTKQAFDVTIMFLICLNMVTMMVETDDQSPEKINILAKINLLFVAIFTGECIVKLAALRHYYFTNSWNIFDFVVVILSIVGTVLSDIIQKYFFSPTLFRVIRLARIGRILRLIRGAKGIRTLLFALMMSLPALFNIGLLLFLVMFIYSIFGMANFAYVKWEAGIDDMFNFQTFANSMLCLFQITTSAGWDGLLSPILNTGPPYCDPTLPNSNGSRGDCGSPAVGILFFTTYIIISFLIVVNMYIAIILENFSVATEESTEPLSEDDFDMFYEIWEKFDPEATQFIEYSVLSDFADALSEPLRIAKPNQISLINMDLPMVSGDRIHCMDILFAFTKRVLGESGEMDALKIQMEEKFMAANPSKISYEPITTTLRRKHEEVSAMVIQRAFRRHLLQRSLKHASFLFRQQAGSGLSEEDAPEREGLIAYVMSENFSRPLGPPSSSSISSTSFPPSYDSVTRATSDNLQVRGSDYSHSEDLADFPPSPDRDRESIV
T1 sequence (Q9UQD0 whole entry): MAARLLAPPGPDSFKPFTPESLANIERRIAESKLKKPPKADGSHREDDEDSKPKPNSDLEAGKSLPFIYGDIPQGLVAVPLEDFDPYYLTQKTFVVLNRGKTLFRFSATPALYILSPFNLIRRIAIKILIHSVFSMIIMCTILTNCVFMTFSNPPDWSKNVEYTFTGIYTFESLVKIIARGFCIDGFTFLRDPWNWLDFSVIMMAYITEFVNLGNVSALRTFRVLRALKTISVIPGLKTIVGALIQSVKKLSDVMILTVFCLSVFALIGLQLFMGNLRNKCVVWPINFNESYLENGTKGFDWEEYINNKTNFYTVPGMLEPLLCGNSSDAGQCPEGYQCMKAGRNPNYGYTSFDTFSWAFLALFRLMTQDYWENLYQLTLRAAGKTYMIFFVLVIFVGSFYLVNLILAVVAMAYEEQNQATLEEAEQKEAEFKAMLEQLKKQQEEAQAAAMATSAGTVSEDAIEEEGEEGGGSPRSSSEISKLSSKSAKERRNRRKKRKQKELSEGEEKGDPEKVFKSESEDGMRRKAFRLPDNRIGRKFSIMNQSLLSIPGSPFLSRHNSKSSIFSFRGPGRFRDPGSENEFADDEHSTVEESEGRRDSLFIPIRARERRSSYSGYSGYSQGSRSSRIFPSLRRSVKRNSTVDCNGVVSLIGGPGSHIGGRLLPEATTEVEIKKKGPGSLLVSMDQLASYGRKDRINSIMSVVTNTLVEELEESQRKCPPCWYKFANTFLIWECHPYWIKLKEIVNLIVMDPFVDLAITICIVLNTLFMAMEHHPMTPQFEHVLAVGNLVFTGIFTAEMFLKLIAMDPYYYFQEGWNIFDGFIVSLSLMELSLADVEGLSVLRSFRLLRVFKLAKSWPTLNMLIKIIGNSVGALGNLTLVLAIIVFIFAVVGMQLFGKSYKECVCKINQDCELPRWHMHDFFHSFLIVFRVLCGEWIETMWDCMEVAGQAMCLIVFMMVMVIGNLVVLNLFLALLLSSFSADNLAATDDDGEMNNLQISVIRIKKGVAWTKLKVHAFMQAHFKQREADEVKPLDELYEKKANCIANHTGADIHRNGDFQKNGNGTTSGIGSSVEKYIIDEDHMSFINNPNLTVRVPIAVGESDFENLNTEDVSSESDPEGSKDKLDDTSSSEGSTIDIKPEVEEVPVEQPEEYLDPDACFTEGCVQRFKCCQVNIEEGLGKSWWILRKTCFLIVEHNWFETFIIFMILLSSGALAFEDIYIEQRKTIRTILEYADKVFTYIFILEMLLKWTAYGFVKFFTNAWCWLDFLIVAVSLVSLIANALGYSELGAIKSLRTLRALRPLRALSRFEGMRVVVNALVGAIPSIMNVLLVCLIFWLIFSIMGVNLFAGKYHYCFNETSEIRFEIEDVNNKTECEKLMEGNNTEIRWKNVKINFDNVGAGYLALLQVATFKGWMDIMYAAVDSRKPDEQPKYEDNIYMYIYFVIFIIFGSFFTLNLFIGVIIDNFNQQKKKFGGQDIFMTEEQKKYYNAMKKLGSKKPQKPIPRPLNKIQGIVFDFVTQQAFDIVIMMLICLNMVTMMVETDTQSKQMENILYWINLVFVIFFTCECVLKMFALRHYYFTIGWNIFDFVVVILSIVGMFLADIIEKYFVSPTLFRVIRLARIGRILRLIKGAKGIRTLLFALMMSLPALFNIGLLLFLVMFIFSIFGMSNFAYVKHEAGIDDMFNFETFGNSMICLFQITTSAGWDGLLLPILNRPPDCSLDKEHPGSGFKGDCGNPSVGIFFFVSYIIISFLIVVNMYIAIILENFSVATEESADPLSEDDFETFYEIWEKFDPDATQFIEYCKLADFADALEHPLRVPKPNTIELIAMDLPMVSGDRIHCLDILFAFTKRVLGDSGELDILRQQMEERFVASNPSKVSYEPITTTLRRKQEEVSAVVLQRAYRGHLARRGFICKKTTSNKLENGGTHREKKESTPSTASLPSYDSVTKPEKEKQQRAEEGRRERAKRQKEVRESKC

Structure (SMILES) | IC50 [1] [µM] | IC50 [2] [µM] | IC50 [3] [µM] | IC50 [4, 5] [µM] | IC50 [4] [µM]
Cc1nc(S(=O)(=O)Nc2cscn2)ccc1NCc1c(F)cccc1CN1CCC1 [Example 4, 5-((2-(azetidin-1-ylmethyl)-6-fluorobenzyl)amino)-6-methyl-N-(thiazol-4-yl)pyridine-2-sulfonamide] | 0.026 | 28.8 | 0.111 | 28.2 | –
Cc1nc(S(=O)(=O)Nc2cscn2)ccc1NCc1c(F)cccc1CN(C)C(C)(C)C [Example 6, 5-((2-((tert-butyl(methyl)amino)methyl)-6-fluorobenzyl)amino)-6-methyl-N-(thiazol-4-yl)pyridine-2-sulfonamide formic acid salt] | 0.069 | 30 | 0.398 | 30 | –
Cc1nc(S(=O)(=O)Nc2ccsn2)ccc1NCc1c(F)cccc1CN(C)C(C)(C)C [Example 19, 5-((2-((tert-butyl(methyl)amino)methyl)-6-fluorobenzyl)amino)-N-(isothiazol-3-yl)-6-methylpyridine-2-sulfonamide trifluoroacetic acid salt] | 0.038 | 30 | 0.221 | 30 | –
Cc1nc(S(=O)(=O)Nc2ccsn2)ccc1NCc1c(F)cccc1CN1CCC1 [Example 20, 5-((2-(azetidin-1-ylmethyl)-6-fluorobenzyl)amino)-N-(isothiazol-3-yl)-6-methylpyridine-2-sulfonamide trifluoroacetic acid salt] | 0.023 | 30 | 0.067 | 25 | –
Cc1nc(S(=O)(=O)Nc2cscn2)ccc1NCc1c(F)ccc(F)c1CN(C)C(C)(C)C [Example 21, 5-((2-((tert-butyl(methyl)amino)methyl)-3,6-difluorobenzyl)amino)-6-methyl-N-(thiazol-4-yl)pyridine-2-sulfonamide trifluoroacetic acid salt] | 0.043 | 30 | 0.102 | 30 | –
Cc1nc(S(=O)(=O)Nc2cscn2)ccc1NCc1ccccc1CN(C)C(C)(C)C [Example 28, 5-((2-((tert-butyl(methyl)amino)methyl)benzyl)amino)-6-methyl-N-(thiazol-4-yl)pyridine-2-sulfonamide trifluoroacetic acid salt] | – | ≥ 30 | 0.782 | – | ≥ 30
Cc1nc(S(=O)(=O)Nc2cscn2)ccc1NCc1c(F)cccc1CN(C)C(C)C [Example 29, 5-((2-fluoro-6-((isopropyl(methyl)amino)methyl)benzyl)amino)-6-methyl-N-(thiazol-4-yl)pyridine-2-sulfonamide trifluoroacetic acid salt] | 0.039 | ≥ 30 | 0.082 | – | ≥ 30
Cc1nc(S(=O)(=O)Nc2cscn2)ccc1NCc1c(F)cccc1CN1CCCC1 [Example 30, 5-((2-fluoro-6-(pyrrolidin-1-ylmethyl)benzyl)amino)-6-methyl-N-(thiazol-4-yl)pyridine-2-sulfonamide trifluoroacetic acid salt] | – | 30 | 0.111 | 30 | –
O=S(=O)(Nc1cscn1)c1cc(C(F)(F)F)c(NCc2c(F)cccc2CN2CCC2)cn1 [Example 31, 5-((2-(azetidin-1-ylmethyl)-6-fluorobenzyl)amino)-N-(thiazol-4-yl)-4-(trifluoromethyl)pyridine-2-sulfonamide] | – | 30 | 1.5 | 30 | –
Cc1nc(S(=O)(=O)Nc2cccc(F)n2)c(F)cc1NCc1ccccc1CN(C)C(C)(C)C [Example 32, 5-((2-((tert-butyl(methyl)amino)methyl)benzyl)amino)-3-fluoro-N-(6-fluoropyridin-2-yl)-6-methylpyridine-2-sulfonamide trifluoroacetic acid salt] | – | 16.7 | 0.272 | 30 | –
Cc1nc(S(=O)(=O)Nc2cscn2)c(F)cc1NCc1ccccc1CN(C)C(C)(C)C [Example 34, 5-((2-((tert-butyl(methyl)amino)methyl)benzyl)amino)-3-fluoro-6-methyl-N-(thiazol-4-yl)pyridine-2-sulfonamide formic acid salt] | – | ≥ 30 | 0.037 | – | ≥ 30
Cc1nc(S(=O)(=O)Nc2cscn2)c(F)cc1NCc1c(F)cccc1CN(C)C(C)C [Example 35, 3-fluoro-5-((2-fluoro-6-((isopropyl(methyl)amino)methyl)benzyl)amino)-6-methyl-N-(thiazol-4-yl)pyridine-2-sulfonamide trifluoroacetic acid salt] | – | 10.5 | 0.024 | – | ≥ 30
Cc1nc(S(=O)(=O)Nc2cscn2)c(F)cc1NCc1c(F)ccc(F)c1Br [Example 36, 5-((2-bromo-3,6-difluorobenzyl)amino)-3-fluoro-6-methyl-N-(thiazol-4-yl)pyridine-2-sulfonamide trifluoroacetic acid salt] | – | 0.245 | 0.863 | 30 | –
Cc1nc(S(=O)(=O)Nc2cscn2)c(F)cc1NCc1cccc(C(F)(F)F)c1CN1C2CCC1CC2 [Example 37, 5-((2-((7-azabicyclo[2.2.1]heptan-7-yl)methyl)-3-(trifluoromethyl)benzyl)amino)-3-fluoro-6-methyl-N-(thiazol-4-yl)pyridine-2-sulfonamide trifluoroacetic acid salt] | – | 8.7 | 5.92 | – | ≥ 30
Cc1nc(S(=O)(=O)Nc2ccon2)c(F)cc1NCc1ccccc1CN(C)C(C)(C)C [Example 46, 5-((2-((tert-butyl(methyl)amino)methyl)benzyl)amino)-3-fluoro-N-(isoxazol-3-yl)-6-methylpyridine-2-sulfonamide trifluoroacetic acid salt] | – | ≥ 30 | 1.78 | – | ≥ 30

The next lines start with results.

IC50 [1] [µM] | IC50 [2] [µM] | IC50 [3] [µM] | Structure (SMILES) | IC50 [4, 5] [µM] | IC50 [4] [µM]
– | 5.54 | 2.23 | Cc1nc(NCc2c(F)cccc2CN2CCCC2)ccc1S(=O)(=O)Nc1cccc(F)n1 [Example 40, 6-((2-fluoro-6-(pyrrolidin-1-ylmethyl)benzyl)amino)-N-(6-fluoropyridin-2-yl)-2-methylpyridine-3-sulfonamide trifluoroacetic acid salt] | 3.27 | –
– | 11.1 | 0.056 | Cc1nc(S(=O)(=O)Nc2cccc(F)n2)ccc1NCc1c(F)cccc1CN1CCCC1 [Example 41, 5-((2-fluoro-6-(pyrrolidin-1-ylmethyl)benzyl)amino)-N-(6-fluoropyridin-2-yl)-6-methylpyridine-2-sulfonamide trifluoroacetic acid salt] | 30 | –
– | 6.29 | 4.47 | O=S(=O)(Nc1cccc(F)n1)c1cnc(NCc2c(F)cccc2CN2CCCC2)c(Cl)c1 [Example 42, 5-chloro-6-((2-fluoro-6-(pyrrolidin-1-ylmethyl)benzyl)amino)-N-(6-fluoropyridin-2-yl)pyridine-3-sulfonamide trifluoroacetic acid salt] | 9.11 | –
– | 8.21 | 2.11 | Cc1cc(S(=O)(=O)Nc2cccc(F)n2)sc1NCc1c(F)cccc1CN1CCCC1 [Example 43, 5-((2-fluoro-6-(pyrrolidin-1-ylmethyl)benzyl)amino)-N-(6-fluoropyridin-2-yl)-4-methylthiophene-2-sulfonamide trifluoroacetic acid salt] | 10.3 | –
– | 20.2 | 0.171 | O=S(=O)(Nc1cscn1)c1ccc(NCc2c(F)ccc(F)c2CN2CCCC2)n2ccnc12 [Example 44, 5-((3,6-difluoro-2-(pyrrolidin-1-ylmethyl)benzyl)amino)-N-(thiazol-4-yl)imidazo[1,2-a]pyridine-8-sulfonamide trifluoroacetic acid salt] | 8.85 | –
– | 30 | 1.93 | Cc1c(NCc2c(F)cccc2CN(C)C(C)C)cnc(S(=O)(=O)Nc2cccc(F)n2)c1F [Example 45, 3-fluoro-5-((2-fluoro-6-((isopropyl(methyl)amino)methyl)benzyl)amino)-N-(6-fluoropyridin-2-yl)-4-methylpyridine-2-sulfonamide] | 30 | –
– | 3.75 | 0.078 | CN(Cc1cccc(F)c1CNc1cc(F)c(S(=O)(=O)Nc2cscn2)nc1C1CC1)C(C)(C)C [Example 49, 5-((2-((tert-butyl(methyl)amino)methyl)-6-fluorobenzyl)amino)-6-cyclopropyl-3-fluoro-N-(thiazol-4-yl)pyridine-2-sulfonamide] | 7.5 | –

From patent publication US10981905B2, “Heteroaryl-substituted sulfonamide compounds and their use as therapeutic agents” (Xenon Pharmaceuticals Inc., priority 2018, dated 2021)
